Reference: ChEMBL document CHEMBL1140139, “A beta-fluoroamine inhibitor of purine nucleoside phosphorylase” (J Med Chem, 2008)

Tests used:
[1] = molecular target: T1, Purine nucleoside phosphorylase (Plasmodium falciparum, UniProt Q8T9Z7); test: Inhibition of Plasmodium falciparum purine nucleoside phosphorylase by xanthine-oxidase coupled assay
T1 sequence (Q8T9Z7 whole entry): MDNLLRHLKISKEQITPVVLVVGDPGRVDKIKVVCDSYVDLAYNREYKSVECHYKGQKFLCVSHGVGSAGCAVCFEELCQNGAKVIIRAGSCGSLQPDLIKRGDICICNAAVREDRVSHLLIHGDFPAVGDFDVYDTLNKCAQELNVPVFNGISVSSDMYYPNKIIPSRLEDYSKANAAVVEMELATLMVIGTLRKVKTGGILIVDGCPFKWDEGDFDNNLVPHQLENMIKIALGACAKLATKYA

[2] = molecular target: T2, Purine nucleoside phosphorylase (Homo sapiens, UniProt P00491); test: Inhibition of human purine nucleoside phosphorylase by xanthine-oxidase coupled assay
T2 sequence (P00491 whole entry): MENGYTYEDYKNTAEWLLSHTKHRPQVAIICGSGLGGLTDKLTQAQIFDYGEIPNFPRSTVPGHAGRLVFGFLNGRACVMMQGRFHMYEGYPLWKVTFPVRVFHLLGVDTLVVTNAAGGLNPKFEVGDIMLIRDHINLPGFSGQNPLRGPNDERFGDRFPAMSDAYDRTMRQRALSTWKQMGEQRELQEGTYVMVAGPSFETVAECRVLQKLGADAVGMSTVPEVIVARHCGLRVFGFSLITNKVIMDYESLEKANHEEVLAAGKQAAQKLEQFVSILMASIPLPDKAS

[3] = molecular target: T1, Purine nucleoside phosphorylase; test: Inhibition of Plasmodium falciparum purine nucleoside phosphorylase assessed as slow onset inhibition constant by xanthine-oxidase coupled assay
[4] = in vivo; conditions: mouse, ip, 14 nmol
Description: Half life in mouse at 14 nmol, ip administered as single dose

[5] = molecular target: T2, Purine nucleoside phosphorylase; test: Inhibition of human purine nucleoside phosphorylase assessed as slow onset inhibition constant by xanthine-oxidase coupled assay
[6] = in vivo; conditions: mouse, po, 14 nmol
Description: Half life in mouse at 14 nmol, po administered as single dose

[7] = species: Mus musculus; test: animal or person; conditions: Blood, po, read-out: INH
Description: Inhibition of purine nucleoside phosphorylase in mouse blood at 0.2 mg/kg, po administered as single dose

Row | SMILES | Ki [1] [nM] | Ki [2] [nM] | Ki [3] [nM] | half-life [4] [h] | Ki* [5] [nM] | half-life [6] [h] | inhibition in vivo at 0.2 mg/kg [7] [%]
1 | O=c1[nH]cnc2c(CN3C[C@@H](CO)[C@H](O)C3)c[nH]c12 | 80 | 0.38 | 1700 |  |  |  | 
2 | O=c1[nH]cnc2c(CN3C[C@H](O)[C@@](F)(CO)C3)c[nH]c12 | 2.63 | 0.33 | 19 | < 0.25 | 0.032 | 20 | 80
3 | O=c1[nH]cnc2c(CN3C[C@@H](O)[C@](F)(CO)C3)c[nH]c12 | 260 | 18 | 2070 |  | 1.82 |  | 
4 | O=c1[nH]cnc2c(CN3C[C@H](O)[C@@](F)(CO)C3)c[nH]c12 (racemic) | 3.6 |  | 23.3 |  |  |  | 
